Source: patent publication US20030018079A1, “Treatment” (priority 2000, published 2003)

Experiment: Studies 004 and 005 together: timolol run-in and comparison of patient groups
Format: in vivo, patients
Conditions: timolol run-in period before baseline
Description: A sub-population of 76 individuals in a population of total 854 patients enrolled into two different studies of German patients (004) and US patients (005) were identified at baseline as having some degree of abnormality to the optic nerve head together with a glaucomatous visual field defect and were treated with a fixed combination (FC) of latanoprost and timolol. Both studies were based on a randomized double-masked parallel group design. In both studies, a fixed combination (FC) of latanoprost and timolol was administered to a group of patients with optic nerve head damage and visual field loss (i.e. glaucomatous field defects) and to groups of patients without any such detected damages, but with an elevation of IOP. Patient demography and baseline characteristics in patients with and without optic nerve head damages and glaucomatous field defects are shown in Table 2.1.
The patients is the studies received one drop in the morning of a fixed combination of latanoprost (50 μg/ml) and timolol (5 mg/ml) during the study duration of 26 weeks. The exact composition of fixed combination is disclosed in Table 1. At baseline, IOP assessments were made at 08:00, 10:00, and 16:00. Measurements at the same time-points were subsequently made at scheduled clinic visits at Week 2, Week 13, and Week 26. Additionally, an 08:00 measurement was also obtained at Week 6. […]

SMILES: CC(C)(C)NC[C@H](O)COc1nsnc1N1CCOCC1 [timolol]
- decrease in IOP: approximately 5 mm Hg
